Assay [1] addresses HIV integrase (Human immunodeficiency virus type 1 group M subtype B, UniProt P04585). The experiment in a line: integrase strand transfer assay (STA). Format: biochemical. Particulars: integrase strand transfer; read-out: IC50 in the STA assay.
Assay [2] deals with HXB2 virus. Briefly: microbe, parasite or virus in culture. Format: cell-based, HIV. Particulars: Human immunodeficiency virus 1, HXB2, HeLaP4-2, read-out: antiviral IC50 (SCIA-B). Summed up: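 HXB2 virus used to infect HeLa P4-2 cells in a single-cycle format; inhibition of acute infection is measured.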

Bounds are passed on as bounds.

Regarding `O=c1cc(NCc2ccncc2)c2cccnc2n1O` [Example 160, 1-hydroxy-4-[(4-pyridinylmethyl)amino]-1,8-naphthyridin-2 (1H-one)], the IC50 is below 50 µM in assay [1] and below 100 µM in assay [2].

For `O=c1cc(NCCN2CCOCC2)c2cccnc2n1O` [Example 161], the IC50 is below 50 µM in assay [1] and below 100 µM in assay [2].

As to `O=c1cc(NCc2cccnc2)c2cccnc2n1O` [Example 162, 1-hydroxy-4-[(3-pyrindinylmethyl)amino]-1,8-naphthyridin-2 (1H-one)], the half-maximal inhibitory concentration (IC50) in assay [1] was below 50 µM; in assay [2], below 100 µM.

As to `CCOC(=O)CN1CCN(c2cc(=O)n(O)c3ncccc23)CC1` [Example 164, ethyl[4-(1-hydroxy-2-oxo-1,2-dihydro-1,8-naphthyridin-4-yl)-1-piperazinyl]acetate], the concentration for half-maximal inhibition (IC50) in assay [1] was below 50 µM; in assay [2], below 100 µM.

`CC1CCN(Cc2cccc(CNc3cc(=O)n(O)c4ncccc34)c2)CC1` [Example 165, 1-hydroxy-4-({3-[(4-methyl-1-piperidinyl)methyl]benzyl}amino)-1,8-naphthyridin-2 (1H-one)]: the half-maximal inhibitory concentration (IC50) in assay [1] is below 50 µM; in assay [2], below 100 µM.

For `O=c1cc(NC(CN2CCCCC2)c2ccccc2)c2cccnc2n1O` (stereo not shown) [Example 166, 1-hydroxy-4-{[1-phenyl-2-(1-piperidinyl)ethyl]amino}-1,8-naphthyridin-2 (1H-one)], the 50% inhibitory concentration (IC50) in assay [1] is below 50 µM; in assay [2], below 100 µM.

Consider `O=c1cc(NCc2cnc(-c3ccccc3)[nH]2)c2cccnc2n1O` [Example 167, 1-hydroxy-4-{[(2-phenyl-1-imidazole-5-yl)methyl]amino}-1,8-naphthyridin-2 (1H-one)], for which the IC50 in assay [1] is below 50 µM; in assay [2] it was below 100 µM.

Take `O=C1N[C@H]2CCCC[C@@H]2Nc2c1c(=O)n(O)c1ncccc21` [Example 169, (8aS, 12aS)-5-hydroxy-8,8a,9,10,11,12,12a,13-octahydro-5H-[1,8]naphthyridino[4,3-b][1,5]benzodiazepine-6,7-dione]: the half-inhibitory concentration (IC50) was below 50 µM in assay [1] and below 100 µM in assay [2].

As to `O=C1N[C@H](c2ccccc2)[C@H](c2ccccc2)Nc2c1c(=O)n(O)c1ncccc21` [Example 170, (2S, 3R)-7-hydroxy-2,3-diphenyl-3,4-dihydro-1H-[1,4]diazepino[6,5-c]-1,8-naphthyridine-5,6(2H, 7H)-dione], the figures for the IC50 in assay [1] and in assay [2] were below 50 µM and below 100 µM, respectively.

As to `O=c1cc(-c2ccccc2)c2cccnc2n1O` [Example 171, 1-Hydroxy-4-phenyl-1,8-naphthyridin-2(H)-one], the half-inhibitory concentration (IC50) in assay [1] was below 50 µM; in assay [2], below 100 µM.

Turning to `O=c1cc(-c2ccc3ccccc3c2)c2cccnc2n1O` [Example 173, 1-hydroxy-4-(2-naphthyl)-1,8-naphthyridin-2(1H)-one], the IC50 was below 50 µM in assay [1] and below 100 µM in assay [2].

With `CC(c1ccc(-c2cc(=O)n(O)c3ncccc23)cc1)N1CCOCC1` (stereo not shown) [Example 174, 1-hydroxy-4-[4-(1-morpholin-4-ylethyl)phenyl]-1,8-naphthyridin-2(1H)-one], the results for the IC50 in assay [1] and in assay [2] were below 50 µM and below 100 µM, respectively.

As for `CS(=O)(=O)Nc1cccc(-c2cc(=O)n(O)c3ncccc23)c1` [Example 175, N-[3-(1-hydroxy-2-oxo-1,2-dihydro-1,8-naphthyridin-4-yl)phenyl]methanesulfo-namide], the IC50 in assay [1] is below 50 µM; in assay [2], below 100 µM.

On to `Cc1cc(C)n(-c2cccc(-c3cc(=O)n(O)c4ncccc34)c2)n1` [Example 176], for which the IC50 in assay [1] was below 50 µM; in assay [2] it was below 100 µM.

On to `CS(=O)(=O)Nc1cccc(-c2cccc(-c3cc(=O)n(O)c4ncccc34)c2)c1` [Example 177, N-[3′-(1-hydroxy-2-oxo-1,2-dihydro-1,8-naphthyridin-4-yl)biphenyl-3-yl]methanesulfonamide], for which the IC50 was below 50 µM in assay [1] and below 100 µM in assay [2].

With `CC(c1ccc(-c2cccc(-c3cc(=O)n(O)c4ncccc34)c2)cc1)N1CCOCC1` (stereo not shown) [Example 178, 1-hydroxy-4-[4′-(1-morpholin-4-ylethyl)biphenyl-3-yl]-1,8-naphthyridin-2(1H)-one], the concentration for half-maximal inhibition (IC50) in assay [1] was below 50 µM; in assay [2] it was below 100 µM.

On to `O=C(c1cccc(-c2cc(=O)n(O)c3ncccc23)c1)N1CCOCC1` [Example 179, 1-hydroxy-4-[3-(morpholin-4-ylcarbonyl)phenyl]-1,8-naphthyridin-2(1H)-one], for which the IC50 in assay [1] was below 50 µM; in assay [2], below 100 µM.

On to `CNC(=O)c1cccc(-c2cc(=O)n(O)c3ncccc23)c1` [Example 180, 3-(1-hydroxy-2-oxo-1,2-dihydro-1,8-naphthyridin-4-yl)-N-methylbenzamide], for which the half-maximal inhibitory concentration (IC50) in assay [1] is below 50 µM; in assay [2], below 100 µM.

As for `CN(C)C(=O)c1cccc(-c2cc(=O)n(O)c3ncccc23)c1` [Example 181, 3-(1-hydroxy-2-oxo-1,2-dihydro-1,8-naphthyridin-4-yl)-N,N-dimethylbenzamide], the IC50 in assay [1] is below 50 µM; in assay [2], below 100 µM.

Take `CC(C)(C)NC(=O)c1cccc(-c2cc(=O)n(O)c3ncccc23)c1` [Example 182]: the values for the IC50 in assay [1] and in assay [2] were below 50 µM and below 100 µM, respectively.

For the molecule `O=c1cc(-c2cccc(CO)c2)c2cccnc2n1O` [Example 183, 1-hydroxy-4-[3-(hydroxymethyl)phenyl]-1,8-naphthyridin-2(1H)-one], the IC50 in assay [1] is below 50 µM; in assay [2], below 100 µM.

Regarding `O=c1cc(-c2ccc3ncccc3c2)c2cccnc2n1O` [Example 184, 1-hydroxy-4-quinolin-6-yl-1,8-naphthyridin-2(1H)-one], the IC50 in assay [1] was below 50 µM; in assay [2], below 100 µM.

On to `COc1ccc(-c2ccncc2)cc1-c1cc(=O)n(O)c2ncccc12` [Example 185, 1-hydroxy-4-(2-methoxy-5-pyridin-4-ylphenyl)-1,8-naphthyridin-2(1H)-one], for which the IC50 in assay [1] was below 50 µM; in assay [2], below 100 µM.

As for `O=c1cc(-c2ccc3cc[nH]c3c2)c2cccnc2n1O` [Example 186, 1-hydroxy-4-(1H-indol-6-yl)-1,8-naphthyridin-2(1H)-one], the IC50 in assay [1] was below 50 µM; in assay [2] it was below 100 µM.

For the molecule `COC(=O)CCc1cccc(-c2cccc(-c3cc(=O)n(O)c4ncccc34)c2)c1` [Example 187, methyl-3-[3′-(1-hydroxy-2-oxo-1,2-dihydro-1,8-naphthyridin-4-yl)biphenyl-3-yl]-propanoate], the IC50 in assay [1] is below 50 µM; in assay [2] it was below 100 µM.

Take `O=c1cc(-c2ccc(-c3ccn[nH]3)cc2)c2cccnc2n1O` [Example 188, 1-hydroxy-4-[4-(1H-pyrazol-5-yl)phenyl]-1,8-naphthyridin-2(1H)-one]: the 50% inhibitory concentration (IC50) in assay [1] is below 50 µM; in assay [2], below 100 µM.

Turning to `CS(=O)(=O)NCc1ccc(-c2cc(=O)n(O)c3ncccc23)cc1` [Example 189, N-[4-(1-hydroxy-2-oxo-1,2-dihydro-1,8-naphthyridin-4-yl)benzyl]methanesulfo-namide], the IC50 is below 50 µM in assay [1] and below 100 µM in assay [2].

For the molecule `NCc1cccc(-c2cncc(-c3cc(=O)n(O)c4ncccc34)c2)c1` [Example 190, 4-{5-[3-(aminomethyl)phenyl]pyridin-3-yl}-1-hydroxy-1,8-naphthyridin-2(1H)one], the concentration for half-maximal inhibition (IC50) in assay [1] was below 50 µM; in assay [2] it was below 100 µM.

For the molecule `CC(=O)c1cccc(-c2cccc(-c3cc(=O)n(O)c4ncccc34)c2)c1` [Example 191, 4-(3′-acetylbiphenyl-3-yl)-1-hydroxy-1,8-naphthyridin-2(1H)-one], the IC50 is below 50 µM in assay [1] and below 100 µM in assay [2].

Turning to `NS(=O)(=O)c1cccc(-c2cc(=O)n(O)c3ncccc23)c1` [Example 192, 3-(1-hydroxy-2-oxo-1,2-dihydro-1,8-naphthyridin-4-yl)benzenesulfonamide], the half-maximal inhibitory concentration (IC50) in assay [1] was below 50 µM; in assay [2] it was below 100 µM.

Take `CNS(=O)(=O)c1cccc(-c2cc(=O)n(O)c3ncccc23)c1` [Example 193, 3-(1-hydroxy-2-oxo-1,2-dihydro-1,8-naphthyridin-4-yl)-N-methylbenzenesulfona-mide]: the values for the IC50 in assay [1] and in assay [2] were below 50 µM and below 100 µM, respectively.

Turning to `CC(=O)Nc1cccc(-c2cc(=O)n(O)c3ncccc23)c1` [Example 194, N-[3-(1-hydroxy-2-oxo-1,2-dihydro-1,8-naphthyridin-4-yl)phenyl]acetamide], the half-inhibitory concentration (IC50) in assay [1] was below 50 µM; in assay [2], below 100 µM.

As for `O=C(c1cccc(-c2cc(=O)n(O)c3ncccc23)c1)N1CCCC1` [Example 195, 1-hydroxy-4-[3-(pyrrolidin-1-ylcarbonyl)phenyl]-1,8-naphthyridin-2(1H)-one], the IC50 in assay [1] is below 50 µM; in assay [2], below 100 µM.

Regarding `NC(=O)c1cccc(-c2cc(=O)n(O)c3ncccc23)c1` [Example 196, 3-(1-hydroxy-2-oxo-1,2-dihydro-1,8-naphthyridin-4-yl)benzamide], the concentration for half-maximal inhibition (IC50) was below 50 µM in assay [1] and below 100 µM in assay [2].

On to `O=c1cc(-c2cncnc2)c2cccnc2n1O` [Example 197, 1-hydroxy-4-pyrimidin-5-yl-1,8-naphthyridin-2(1H)-one], for which the 50% inhibitory concentration (IC50) in assay [1] was below 50 µM; in assay [2], below 100 µM.

Regarding `O=c1cc(-c2ccn[nH]2)c2cccnc2n1O` [Example 198, 1-hydroxy-4-(1H-pyrazol-5-yl)-1,8-naphthyridin-2(1H)-one], the concentration for half-maximal inhibition (IC50) in assay [1] was below 50 µM; in assay [2] it was below 100 µM.

For `CS(=O)(=O)c1cccc(-c2cc(=O)n(O)c3ncccc23)c1` [Example 199, 1-hydroxy-4-[3-(methylsulfonyl)phenyl]-1,8-naphthyridin-2(1H)-one], the 50% inhibitory concentration (IC50) was below 50 µM in assay [1] and below 100 µM in assay [2].

Take `O=c1cc(-c2ccc(NCCN3CCOCC3)nc2)c2cccnc2n1O` [Example 200, 1-hydroxy-4-{6-[(2-morpholin-4-ylethyl)amino]pyridin-3-yl}-1,8-naphthyridin-2(1H)-one]: the 50% inhibitory concentration (IC50) in assay [1] is below 50 µM; in assay [2], below 100 µM.

In general, IC50 refers to the point on the concentration scale where inhibition reaches its midpoint.

The values are drawn from patent US20100056516A1 (priority 2006, published 2010).
